Laboratory results as given in patent US9468212B2, “Antifungal compositions” (DSM IP ASSETS B.V., priority 2013, dated 2016).
Values joined by “and” are separate entries in the source; they are usually repeats but may differ in a detail not shown here. Equal values may be shown once.

How the values were obtained:
[1] = system: mould; experiment: Treatment of pineapples: mould incidence on the pineapple rinds after storage (Example 11); type: in vivo; details: 200 ppm natamycin, 250 ppm fludioxonil or both, 28 days of storage (21 days at 7.5° C., 7 days at 18 to 20° C.)
Description: In this experiment pineapples were selected from a packing plant located in Costa Rica. These pineapples were selected based on uniformity in color and size. Furthermore, they were free from visual mold growth or any other visual damage caused by plagues or diseases.
The surface of the pineapples was first disinfected by immersion of the fruits for one minute in a solution comprising 150 ppm sodium hypochlorite. Next, the fruits were dried and thereafter the antimicrobial compositions were applied on the fruits using a modified watering can. This shower, to simulate the wax cascade used in pineapple packing plants, covered the rind of the fruits with a thin film of wax. The crown of the pineapple was not treated. […]
After 28 days, the mould incidence on the pineapple rinds was assessed using the following method. The number of pineapples with visual mould incidence on the rind per total of 40 pineapples was counted for all compositions. Subsequently, the antifungal activity (in %) of the individual and combined active ingredients (compositions B, C and D) was determined by calculating the reduction in mould incidence observed on the pineapple rind compared to composition A. The observed antifungal activity of composition D was compared to the expected antifungal activity of composition D according to the Colby method (Colby, 1967) as described in Example 5.

[2] = system: Botrytis cinerea; experiment: Treatment of strawberries: wounded, inoculated with Botrytis cinerea, dipped in antifungal composition (Examples 5, 6); type: in vivo; details: 20° C.
Protocol: Twelve fresh, organic strawberries were used per treatment. Each strawberry was wounded with a 0.5 mm long cut and each wound was inoculated with 10 μl of a Botrytis cinerea suspension containing 1×10^5 of spores/ml. After a 3-hour incubation period at 20° C., each strawberry was dipped individually for 1 minute in a freshly prepared aqueous antifungal composition comprising either 500 ppm natamycin (DSM Food Specialties, Delft, The Netherlands), 500 ppm fludioxonil or both. Each antifungal composition also comprised 3.2% (w/w) beeswax, 0.8% (w/w) glycerol, 0.7% (w/w) polyoxyethylene sorbitan monostearate (Tween 60), 0.1% (w/w) polyoxyethylene sorbitan monooleate (Tween 80), 0.05% (w/w) methylhydroxyethyl-cellulose (MH EC), 0.03% (w/w) anti-foaming agent, 0.02% (w/w) xanthan gum, 0.02% (w/w) citric acid, 0.01% (w/w) lactic acid and 0.01% potassium sorbate. A composition without natamycin or fludioxonil was used as control. […] The treated strawberries were incubated in a closed box in the dark at 20° C. for 19 days.
The expected antifungal activity (E in %) of the combined antifungal composition comprising both active ingredients was calculated according to the Colby equation (Colby, 1967): E=X+Y−[(X·Y)/100] wherein X and Y are the observed antifungal activities (in %) of the individual active ingredients X and Y, respectively.
The experiment was conducted as described in Example 5, except for the fact that each wounded and inoculated strawberry was dipped individually for 1 minute in a freshly prepared aqueous antifungal composition comprising either 250 ppm natamycin (DSM Food Specialties, Delft, The Netherlands), 250 ppm fludioxonil or both. During incubation, the treated strawberries were assessed on mould growth according to the two methods described in Example 5.

## C[C@@H]1C/C=C/C=C/C=C/C=C/[C@H](O[C@@H]2O[C@H](C)[C@@H](O)[C@H](N)[C@@H]2O)C[C@@H]2O[C@](O)(C[C@@H](O)C[C@H]3O[C@@H]3/C=C/C(=O)O1)C[C@H](O)[C@H]2C(=O)O [Natamycin, natamycin]
[1]
  Observed antifungal activity O (%): 35%
[2]; 250 ppm natamycin, 250 ppm fludioxonil or both, 6 days
  Observed antifungal activity O (%): 23%
[2]; 250 ppm natamycin, 250 ppm fludioxonil or both, 7 days
  Observed antifungal activity O (%): 23%
[2]; 250 ppm natamycin, 250 ppm fludioxonil or both, 8 days
  Observed antifungal activity O (%): 18%
[2]; 250 ppm natamycin, 250 ppm fludioxonil or both, 9 days
  Observed antifungal activity O (%): 13%
[2]; 250 ppm natamycin, 250 ppm fludioxonil or both, 10 days
  Observed antifungal activity O (%): 4.8%
[2]; 250 ppm natamycin, 250 ppm fludioxonil or both, 11 days
  Observed antifungal activity O (%): 4.8%
[2]; 250 ppm natamycin, 250 ppm fludioxonil or both, 12 days
  Observed antifungal activity O (%): 1.2%
[2]; 250 ppm natamycin, 250 ppm fludioxonil or both, 13 days
  Observed antifungal activity O (%): 1.2%
[2]; 250 ppm natamycin, 250 ppm fludioxonil or both, 14 days
  Observed antifungal activity O (%): 1.2%
[2]; 250 ppm natamycin, 250 ppm fludioxonil or both, 15 days
  Observed antifungal activity O (%): 0%
[2]; 250 ppm natamycin, 250 ppm fludioxonil or both, 16 days
  Observed antifungal activity O (%): 0%
[2]; 250 ppm natamycin, 250 ppm fludioxonil or both, 18 days
  Observed antifungal activity O (%): 0%
[2]; 250 ppm natamycin, 250 ppm fludioxonil or both, 19 days
  Observed antifungal activity O (%): 0%
[2]; 250 ppm natamycin, 250 ppm fludioxonil or both, Day 6-8
  Number of moulded strawberries/total number of 12 strawberries: 11 and 11/12
[2]; 250 ppm natamycin, 250 ppm fludioxonil or both, Day 9
  Number of moulded strawberries/total number of 12 strawberries: 11 and 11/12
[2]; 250 ppm natamycin, 250 ppm fludioxonil or both, Day 10
  Number of moulded strawberries/total number of 12 strawberries: 12 and 12/12
[2]; 250 ppm natamycin, 250 ppm fludioxonil or both, Day 11
  Number of moulded strawberries/total number of 12 strawberries: 12 and 12/12
[2]; 250 ppm natamycin, 250 ppm fludioxonil or both, Day 12
  Number of moulded strawberries/total number of 12 strawberries: 12 and 12/12
[2]; 250 ppm natamycin, 250 ppm fludioxonil or both, Day 13
  Number of moulded strawberries/total number of 12 strawberries: 12 and 12/12
[2]; 250 ppm natamycin, 250 ppm fludioxonil or both, Day 14
  Number of moulded strawberries/total number of 12 strawberries: 12 and 12/12
[2]; 250 ppm natamycin, 250 ppm fludioxonil or both, Day 15
  Number of moulded strawberries/total number of 12 strawberries: 12 and 12/12
[2]; 500 ppm natamycin, 500 ppm fludioxonil or both, 7 days
  Observed antifungal activity O (%): 11%
[2]; 500 ppm natamycin, 500 ppm fludioxonil or both, 8 days
  Observed antifungal activity O (%): 14%
[2]; 500 ppm natamycin, 500 ppm fludioxonil or both, 9 days
  Observed antifungal activity O (%): 4.8%
[2]; 500 ppm natamycin, 500 ppm fludioxonil or both, 10 days
  Observed antifungal activity O (%): 2.4%
[2]; 500 ppm natamycin, 500 ppm fludioxonil or both, 11 days
  Observed antifungal activity O (%): 2.4%
[2]; 500 ppm natamycin, 500 ppm fludioxonil or both, 12 days
  Observed antifungal activity O (%): 0%
[2]; 500 ppm natamycin, 500 ppm fludioxonil or both, 13 days
  Observed antifungal activity O (%): 0%
[2]; 500 ppm natamycin, 500 ppm fludioxonil or both, 14 days
  Observed antifungal activity O (%): 0%
[2]; 500 ppm natamycin, 500 ppm fludioxonil or both, 15 days
  Observed antifungal activity O (%): 0%
[2]; 500 ppm natamycin, 500 ppm fludioxonil or both, 16 days
  Observed antifungal activity O (%): 0%
[2]; 500 ppm natamycin, 500 ppm fludioxonil or both, 18 days
  Observed antifungal activity O (%): 0%
[2]; 500 ppm natamycin, 500 ppm fludioxonil or both, 19 days
  Observed antifungal activity O (%): 0%
[2]; 500 ppm natamycin, 500 ppm fludioxonil or both, Day 7
  Number of moulded strawberries/total number of 12 strawberries: 12 and 12/12
[2]; 500 ppm natamycin, 500 ppm fludioxonil or both, Day 8
  Number of moulded strawberries/total number of 12 strawberries: 12 and 12/12
[2]; 500 ppm natamycin, 500 ppm fludioxonil or both, Day 9
  Number of moulded strawberries/total number of 12 strawberries: 12 and 12/12
[2]; 500 ppm natamycin, 500 ppm fludioxonil or both, Day 10-11
  Number of moulded strawberries/total number of 12 strawberries: 12 and 12/12
[2]; 500 ppm natamycin, 500 ppm fludioxonil or both, Day 12
  Number of moulded strawberries/total number of 12 strawberries: 12 and 12/12
[2]; 500 ppm natamycin, 500 ppm fludioxonil or both, Day 13
  Number of moulded strawberries/total number of 12 strawberries: 12 and 12/12
[2]; 500 ppm natamycin, 500 ppm fludioxonil or both, Day 14
  Number of moulded strawberries/total number of 12 strawberries: 12 and 12/12
[2]; 500 ppm natamycin, 500 ppm fludioxonil or both, Day 15
  Number of moulded strawberries/total number of 12 strawberries: 12 and 12/12
[2]; 500 ppm natamycin, 500 ppm fludioxonil or both, Day 16-17
  Number of moulded strawberries/total number of 12 strawberries: 12 and 12/12
